Reference: patent publication US7932270B2 (Cytokinetics, Inc., priority 2006, dated 2011)

target: T1, chicken gizzard smooth muscle myosin subfragment-1 chemically crosslinked to cardiac or skeletal actin (Gallus gallus, UniProt P10587); experiment: Smooth muscle myosin ATPase dose response assay (pyruvate kinase/horseradish peroxidase/pyruvate oxidase-coupled, amplex red fluorescence); format: biochemical; conditions: read-out: IC50 Arithmetic Mean
T1 construct: chicken gizzard smooth muscle myosin subfragment-1; from tissue; host or cells: chicken gizzard
T1 sequence (P02607 2-151): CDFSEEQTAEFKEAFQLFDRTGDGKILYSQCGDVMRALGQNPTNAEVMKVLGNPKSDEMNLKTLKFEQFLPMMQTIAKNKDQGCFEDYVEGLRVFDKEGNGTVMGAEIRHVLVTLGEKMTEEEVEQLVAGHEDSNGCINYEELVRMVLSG
T1 sequence (P10587 84-789): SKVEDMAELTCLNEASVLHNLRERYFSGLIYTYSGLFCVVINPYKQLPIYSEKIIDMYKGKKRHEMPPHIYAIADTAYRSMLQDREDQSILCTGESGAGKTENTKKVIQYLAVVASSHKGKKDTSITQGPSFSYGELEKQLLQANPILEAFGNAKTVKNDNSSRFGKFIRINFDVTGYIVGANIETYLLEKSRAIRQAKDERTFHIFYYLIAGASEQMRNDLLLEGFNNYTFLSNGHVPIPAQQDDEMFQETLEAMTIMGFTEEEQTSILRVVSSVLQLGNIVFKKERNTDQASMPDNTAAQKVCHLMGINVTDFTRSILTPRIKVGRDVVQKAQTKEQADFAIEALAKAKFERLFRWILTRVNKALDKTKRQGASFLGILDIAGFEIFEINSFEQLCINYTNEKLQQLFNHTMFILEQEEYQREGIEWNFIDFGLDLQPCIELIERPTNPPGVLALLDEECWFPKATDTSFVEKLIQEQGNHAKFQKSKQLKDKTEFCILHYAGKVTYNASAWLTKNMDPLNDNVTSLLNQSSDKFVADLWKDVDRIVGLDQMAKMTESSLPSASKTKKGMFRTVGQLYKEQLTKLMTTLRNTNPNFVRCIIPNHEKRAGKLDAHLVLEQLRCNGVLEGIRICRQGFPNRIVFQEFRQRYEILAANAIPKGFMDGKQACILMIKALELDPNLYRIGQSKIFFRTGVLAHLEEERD
Outline: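 ATPase monitored by amplex red fluorescence (ex 480/em 615 nm) via pyruvate oxidase/HRP coupling, pH 7.00, ATP 0.15 mM. Enzyme: smooth muscle S1-actin crosslinked conjugate, amount set empirically by titration. Dose-response fitted with 4-parameter Hill equation for IC50.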

`CNC(=O)[C@H](CNC(=O)OC(C)(C)C)NC(=O)c1ccc(-c2ccccc2C#N)nc1NCCc1cccc(F)c1` [(2S)-3-[(tert-butoxy)carbonylamino]-2-[(6-(2-cyanophenyl)-2-{[2-(3-fluorophenyl)ethyl]amino}(3-pyridyl))carbonylamino]-N-methylpropanamide] and `CC(C)(C)OC(=O)NC[C@H](NC(=O)c1ccc(-c2ccccc2C#N)nc1NCCc1cccc(F)c1)C(=O)O` [(2S)-3-[(tert-butoxy)carbonylamino]-2-[(6-(2-cyanophenyl)-2-{[2-(3-fluorophenyl)ethyl]amino}(3-pyridyl))carbonylamino]propanoic acid] are within 1.5-fold of each other in IC50: 43600 nM for the first, 30400 nM for the second.

First: CN(C)C(=O)[C@H](CN)NC(=O)c1ccc(-c2ccccc2C#N)nc1NCCc1cccc(F)c1 [(2S)-3-amino-2-[(6-(2-cyanophenyl)-2-{[2-(3-fluorophenyl)ethyl]amino}(3-pyridyl))carbonylamino]-N,N-dimethylpropanamide]
Second: N#Cc1ccccc1-c1ccc(C(=O)N[C@@H](CN)C(=O)O)c(NCCc2cccc(F)c2)n1 [(2S)-3-amino-2-[(6-(2-cyanophenyl)-2-{[2-(3-fluorophenyl)ethyl]amino}(3-pyridyl))carbonylamino]propanoic acid]
The IC50 of the first is 2.1-fold higher: 23700 nM for the first, 11100 nM for the second. The second is the more potent here.

`CNC(=O)[C@H](CN)NC(=O)c1ccc(-c2ccccc2C#N)nc1NCCc1cccc(F)c1` [(2S)-3-amino-2-[(6-(2-cyanophenyl)-2-{[2-(3-fluorophenyl)ethyl]amino}(3-pyridyl))carbonylamino]-N-methylpropanamide] and `N#Cc1ccccc1-c1nc(NCCc2cccc(F)c2)c(C(=O)NCc2cccnc2)cc1Br` [(5-bromo-6-(2-cyanophenyl)-2-{[2-(3-fluorophenyl)ethyl]amino}(3-pyridyl))-N-(3-pyridylmethyl)carboxamide] are within 1.5-fold of each other in IC50: 3450 nM for the first, 2650 nM for the second.

First: NCc1cc(C(=O)NCc2cccnc2)c(NCCc2cccc(F)c2)nc1-c1ccccc1 [(5-(aminomethyl)-2-{[2-(3-fluorophenyl)ethyl]amino}-6-phenyl(3-pyridyl))-N-(3-pyridylmethyl)carboxamide]
Second: N#Cc1ccccc1-c1nc(NCCc2cccc(F)c2)c(C(=O)NCc2cccnc2)cc1Cl [(5-chloro-6-(2-cyanophenyl)-2-{[2-(3-fluorophenyl)ethyl]amino}(3-pyridyl))-N-(3-pyridylmethyl)carboxamide]
The IC50 of the first is 17-fold higher: 8900 nM for the first, 512 nM for the second. The second is the more potent here.

`Cn1cc(-c2nc(NCCc3cccc(F)c3)c(C(=O)NCc3cccnc3)cc2Br)cn1` [(5-bromo-2-{[2-(3-fluorophenyl)ethyl]amino}-6-(1-methylpyrazol-4-yl)(3-pyridyl))-N-(3-pyridylmethyl)carboxamide] and `Cn1cc(-c2nc(NCCc3cccc(F)c3)c(C(=O)NCc3cccnc3)cc2Cl)cn1` [(5-chloro-2-{[2-(3-fluorophenyl)ethyl]amino}-6-(1-methylpyrazol-4-yl)(3-pyridyl))-N-(3-pyridylmethyl)carboxamide] are within 1.5-fold of each other in IC50: 23 nM for the first, 21 nM for the second.

`O=C(NCc1cccnc1)c1cc(Br)c(-c2cn[nH]c2)nc1NCCc1cccc(F)c1` [(5-bromo-2-{[2-(3-fluorophenyl)ethyl]amino}-6-pyrazol-4-yl(3-pyridyl))-N-(3-pyridylmethyl)carboxamide] and `O=C(NCc1cccnc1)c1cc(F)c(-c2cn[nH]c2)nc1NCCc1cccc(F)c1` [(5-fluoro-2-{[2-(3-fluorophenyl)ethyl]amino}-6-pyrazol-4-yl(3-pyridyl))-N-(3-pyridylmethyl)carboxamide] are within 1.5-fold of each other in IC50: 21 nM for the first, 18 nM for the second.

Going from `Cn1cc(-c2nc(NCCc3cccc(F)c3)c(C(=O)NCc3cccnc3)cc2C#N)cn1` [(5-cyano-2-{[2-(3-fluorophenyl)ethyl]amino}-6-(1-methylpyrazol-4-yl)(3-pyridyl))-N-(3-pyridylmethyl)carboxamide] to `Cn1cc(-c2nc(NCCc3cccc(F)c3)c(C(=O)NCc3cccnc3)cc2F)cn1` [(5-fluoro-2-{[2-(3-fluorophenyl)ethyl]amino}-6-(1-methylpyrazol-4-yl)(3-pyridyl))-N-(3-pyridylmethyl)carboxamide], the IC50 falls from 21 nM to 12 nM (1.8-fold).

Compared with `N#Cc1ccccc1-c1nc(NCCc2cccc(F)c2)c(C(=O)NCc2cccnc2)cc1C#N` [(5-cyano-6-(2-cyanophenyl)-2-{[2-(3-fluorophenyl)ethyl]amino}(3-pyridyl))-N-(3-pyridylmethyl)carboxamide], `O=C(NCc1cccnc1)c1ccc(-c2ccc(F)cc2Cl)nc1NCCc1cccc(F)c1` [(6-(2-chloro-4-fluorophenyl)-2-{[2-(3-fluorophenyl)ethyl]amino}(3-pyridyl))-N-(3-pyridylmethyl)carboxamide] is 4.3-fold higher in IC50: 318 nM for the first, 1380 nM for the second.

First: Cn1cc(-c2nc(NCCc3cccc(F)c3)c(C(=O)NCC(C)(C)O)cc2F)cn1 [(5-fluoro-2-{[2-(3-fluorophenyl)ethyl]amino}-6-(1-methylpyrazol-4-yl)(3-pyridyl))-N-(2-hydroxy-2-methylpropyl)carboxamide]
Second: Cn1cc(-c2nc(NCCc3cccc(F)c3)c(C(=O)NCC(C)(C)CO)cc2F)cn1 [(5-fluoro-2-{[2-(3-fluorophenyl)ethyl]amino}-6-(1-methylpyrazol-4-yl)(3-pyridyl))-N-(3-hydroxy-2,2-dimethylpropyl)carboxamide]
The IC50 of the first is 1.7-fold higher: 381 nM for the first, 224 nM for the second.

`Cn1cc(-c2nc(NCCc3cccc(F)c3)c(C(=O)NCc3cc[nH]n3)cc2F)cn1` [(5-fluoro-2-{[2-(3-fluorophenyl)ethyl]amino}-6-(1-methylpyrazol-4-yl)(3-pyridyl))-N-(pyrazol-3-ylmethyl)carboxamide] and `O=C(NCc1cc[nH]n1)c1cc(F)c(-c2cn[nH]c2)nc1NCCc1cccc(F)c1` [(5-fluoro-2-{[2-(3-fluorophenyl)ethyl]amino}-6-pyrazol-4-yl(3-pyridyl))-N-(pyrazol-3-ylmethyl)carboxamide] are within 1.5-fold of each other in IC50: 20 nM for the first, 24 nM for the second.

Going from `Cn1cc(-c2nc(NCCc3cccc(F)c3)c(C(=O)NCC(CO)CO)cc2F)cn1` [(5-fluoro-2-{[2-(3-fluorophenyl)ethyl]amino}-6-(1-methylpyrazol-4-yl)(3-pyridyl))-N-[3-hydroxy-2-(hydroxymethyl)propyl]carboxamide] to `O=C(NCC(CO)CO)c1cc(F)c(-c2cn[nH]c2)nc1NCCc1cccc(F)c1` [(5-fluoro-2-{[2-(3-fluorophenyl)ethyl]amino}-6-pyrazol-4-yl(3-pyridyl))-N-[3-hydroxy-2-(hydroxymethyl)propyl]carboxamide], the IC50 rises from 134 nM to 215 nM (1.6-fold).

Compared with `O=C(NCc1ccccn1)c1cc(F)c(-c2cn[nH]c2)nc1NCCc1cccc(F)c1` [(5-fluoro-2-{[2-(3-fluorophenyl)ethyl]amino}-6-pyrazol-4-yl(3-pyridyl))-N-(2-pyridylmethyl)carboxamide], `O=C(NCc1cccnc1)c1ccc(-c2cc(F)ccc2Cl)nc1NCCc1cccc(F)c1` [(6-(2-chloro-5-fluorophenyl)-2-{[2-(3-fluorophenyl)ethyl]amino}(3-pyridyl))-N-(3-pyridylmethyl)carboxamide] is 55-fold higher in IC50: 24 nM for the first, 1330 nM for the second. The first is the more potent here.

Going from `O=C(NCc1cccnc1)c1ccc(-c2nnn[nH]2)nc1NCCc1cccc(F)c1` [(6-(1H-1,2,3,4-tetraazol-5-yl)-2-{[2-(3-fluorophenyl)ethyl]amino}(3-pyridyl))-N-(3-pyridylmethyl)carboxamide] to `Cc1ccc(-c2ccc(C(=O)NCc3cccnc3)c(NCCc3cccc(F)c3)n2)c(Cl)c1` [(6-(2-chloro-4-methylphenyl)-2-{[2-(3-fluorophenyl)ethyl]amino}(3-pyridyl))-N-(3-pyridylmethyl)carboxamide], the IC50 falls from 78100 nM to 2080 nM (38-fold). The second is the more potent here.
